Values of other authors, collected in PMC8537947, “Improved Radiolytic Stability of a ^68Ga-labelled Collagelin Analogue for the Imaging of Fibrosis” (Pharmaceuticals, 2021).

Assays:
collagen I = conditions: initial cyclic peptide analogues, earlier work of the authors; cited from earlier work
Source text: One of the targets for radioactive imaging agents is type I collagen which is the most abundant extracellular matrix protein [1, 2, 3, 4, 5, 6]. Collagelin, a cyclic peptide identified from the bacterial peptide library, presumably binds selectively to the triple helix structure of collagen. The aim of this study was to develop a PET tracer for the specific imaging of early active fibrosis via binding to monomer collagen. The uptake in bone, skin and other tissues rich in collagen cross-linked fibrils, and in diseased sites with established, mature collagen was expected to be low, ...

[1] = system: frozen sections of dog heart affected by fibrosis; conditions: cited from earlier work
Source text: The presence of excessive deposition of collagen was confirmed previously performing a Sirius Red histological assay on the adjacent tissue sections. The uptake of [^68Ga]Ga-NO2A-[Nle^13]-Col in the fibrotic tissue linearly correlated (R^2 = 0.84, Figure 2C) with the scoring of fibrosis, indicating a target density ranging between ...

In the case of “c[CPGRVXHGLHLGDDEGPC] (disulfide) [[^68Ga]Ga-NO2A-Col]”, the Kd (collagen I) is given as 2300 ± 800 nM and the target density [1] is given as 2.0 fmol/mm^3.
